Experimental data reported in patent US20250250251A1, “PIPERIDINYLPYRIDINYLCARBONITRILE DERIVATIVES AS INHIBITORS OF GLUTAMINYL-PEPTIDE CYCLOTRANSFERASE AND GLUTAMINYL-PEPTIDE CYCLOTRANSFERASE LIKE PROTEIN” (Boehringer Ingelheim International GmbH, priority 2024, published 2025).

What was measured:
QPCTL = target: T1, QPCTL (Homo sapiens, UniProt Q9NXS2); test: Assay A: biochemical QPCTL activity assay (MALDI-TOF MS, CD47 peptide substrate); conditions: Table 2, compounds of the invention, read-out: Inhibition of QPCTL: IC50
T1 construct: made in house
T1 sequence (Q9NXS2 whole entry, species assumed): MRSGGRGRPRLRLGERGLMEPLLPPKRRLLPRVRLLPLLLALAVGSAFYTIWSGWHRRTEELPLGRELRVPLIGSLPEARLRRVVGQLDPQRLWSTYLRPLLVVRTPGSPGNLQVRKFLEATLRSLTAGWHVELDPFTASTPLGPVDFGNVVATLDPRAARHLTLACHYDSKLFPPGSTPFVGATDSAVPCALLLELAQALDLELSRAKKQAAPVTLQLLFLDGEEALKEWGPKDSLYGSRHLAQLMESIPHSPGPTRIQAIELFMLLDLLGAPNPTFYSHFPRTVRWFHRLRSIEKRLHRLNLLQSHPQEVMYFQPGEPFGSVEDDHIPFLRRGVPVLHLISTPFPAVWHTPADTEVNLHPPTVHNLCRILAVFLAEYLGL
Procedure: (§1) QPCT or QPCTL dependent conversion of N-terminal glutamine to pyroglutamate of CD47 was monitored via MALDI-TOF MS. Test compounds were dissolved in 100% DMSO and serially diluted into clear 1,536-well microtiter plates. Enzymatic reactions were set up in assay buffer containing 20 mM Tris pH 7.5, 0.1 mM TCEP, 0.01% BSA, and 0.001% Tween20. […] The plates were incubated for 10 min in a humidified incubator at 24° C. Subsequently, 2.5 μL of CD47 peptide substrate surrogate (^19[…]^33) was added to each well (final concentration: 10 μM for QPCTL/20 μM for QPCT). The plates were mixed for 30 sec at 1,000 rpm and subsequently incubated for 40 min in a humidified incubator at 24° C. […] The plates were sealed with an adhesive foil, mixed for 30 s at 1,000 rpm and stored at room temperature until preparation of the MALDI target plates. MALDI target plates were prepared as described previously. […] QPCT or QPCTL activity was monitored by calculating the ratio between product and internal standard signals followed by normalization to high (100% activity) and low (0% activity) controls. Determination of compound potencies was obtained by fitting the dose-response data to a four-parameter logistical equation.

QPCT = target: T2, QPCT (Homo sapiens, UniProt Q16769); test: Assay A: biochemical QPCT activity assay (MALDI-TOF MS, CD47 peptide substrate); conditions: Table 2, compounds of the invention, read-out: Inhibition of QPCT: IC50
T2 construct: purchased Origine (OriGene) TP700028
T2 sequence (Q16769 29-361): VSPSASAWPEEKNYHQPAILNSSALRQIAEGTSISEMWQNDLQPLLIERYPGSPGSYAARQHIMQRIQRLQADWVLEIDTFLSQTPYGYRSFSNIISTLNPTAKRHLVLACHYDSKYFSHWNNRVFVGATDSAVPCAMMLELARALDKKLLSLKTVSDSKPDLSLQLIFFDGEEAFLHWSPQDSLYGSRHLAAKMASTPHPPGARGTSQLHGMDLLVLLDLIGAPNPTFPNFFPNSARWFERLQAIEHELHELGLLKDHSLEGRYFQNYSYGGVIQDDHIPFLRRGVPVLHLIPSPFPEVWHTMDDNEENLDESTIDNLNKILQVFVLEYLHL
Procedure: as §1

[1] = Assay C: permeability in CACO-2 cells; assay type: in vitro ADME; conditions: human, pH 7.2, Table 7, compounds of the invention, CACO-2 cells; for efflux ratio: permeability B-A/permeability A-B, read-out: Efflux Ratio
Procedure: Caco-2 cells (1-2×10^5 cells/1 cm^2 area) are seeded on filter inserts (Costar transwell polycarbonate or PET filters, 0.4 μm pore size) and cultured (DMEM) for 10 to 25 days. Compounds are dissolved in appropriate solvent (like DMSO, 1-20 mM stock solutions). […] The transport solution (TL) is applied to the apical or basolateral donor side for measuring A-B or B-A permeability (3 filter replicates), respectively. Samples are collected at the start and end of experiment from the donor and at various time intervals for up to 2 hours also from the receiver side for concentration measurement by HPLC-MS/MS or scintillation counting. Sampled receiver volumes are replaced with fresh receiver solution.
Efflux ratio (ER)=permeability B−A/permeability A−B

CYP3A4 mRNA = test: Assay D: CYP induction screening assay in primary human hepatocytes; assay type: in vitro ADME; conditions: Table 9, compounds of the invention, 48 h
Procedure: Cryopreserved plateable human hepatocytes (single donor. BioIVT) were thawed and plated in Collagen-I coated 96-well-plates at a cell density of 0.07 million cells per well.
After a 6 h attachment period, the seeding medium was replaced by serum-free William's medium E supplemented with Matrigel (0.25 mg/ml) and allowed to recover overnight. 24 h post-seeding, serum-free Williams E medium containing the test compound at a final concentration of […] and a final DMSO content of 0.1% and 0.1% DMSO (solvent-treated control), respectively, was added to predefined wells. Exposure solutions were renewed after 24 h.
After 48 h of treatment in total, the effect of the test compounds on CYP3A4 mRNA expression was assessed using the QuantiGene Plex Gene Expression Assay. Hepatocytes were lysed and total RNA was extracted using the QuantiGene Sample Processing Kit according to the instructions of the manufacturer.
mRNA quantification was conducted using a customized QuantiGene Plex Panel to analyse CYP3A4 and the housekeeper genes RPL32, EIF4E2 and GUSB according to the instructions of the manufacturer and measured on a Luminex™ instrument. Signal was reported as median fluorescence intensity (MFI), which is proportional to the number of target RNA molecules present in the sample.
For calculation of CYP3A4 mRNA induction, the signal for CYP3A4 was normalized against the geometric mean of the signal obtained for the housekeeper genes for hepatocytes exposed to test compounds in relation to solvent-treated samples according to the following equation: […]

murine hepatocytes = test: Assay E: stability in murine hepatocytes; assay type: in vitro ADME, mouse; conditions: Table 12, compounds of the invention, 1 μM, 5% species serum
Procedure: The metabolic degradation of the test compound is assayed in a murine hepatocyte suspension.
Murine hepatocytes (typically cryopreserved) are incubated in an appropriate buffer system (e.g. Dulbecco's modified eagle medium plus 3.5 μg glucagon/500 mL, 2.5 mg insulin/500 mL and 3.75 mg/500 mL hydrocortison) containing 5% species serum.
Following a (typically) 30 min preincubation in an incubator (37° C., 10% CO2) 5 μl of test compound solution (80 μM; from 2 mM in DMSO stock solution diluted 1:25 with medium) are added into 395 μl hepatocyte suspension (cell density in the range 0.25-5 Mio cells/mL, typically 1 Mio cells/mL; final concentration of test compound 1 μM, final DMSO concentration 0.05%).
The cells are incubated for six hours (incubator, orbital shaker) and samples (25 μl) are taken at 0, 0.5, 1, 2, 4 and 6 hours. Samples are transferred into acetonitrile and pelleted by centrifugation (5 min). The supernatant is transferred to a new 96-deepwell plate, evaporated under nitrogen and resuspended.
Decline of parent compound is analyzed by HPLC-MS/MS
CLint is calculated as follows CL_[…]=Dose/AUC=(C0/CD)/(AUD+clast/k)×1000/60. C0: initial concentration in the incubation [μM], CD: cell density of vital cells [10e6 cells/mL], AUD: area under the data [μM×h], clast: concentration of last data point [μM], k: slope of the regression line for parent decline [h−1].
The calculated in vitro hepatic intrinsic clearance can be scaled up to the intrinsic in vivo hepatic Clearance and used to predict hepatic in vivo blood clearance (CL) by the use of a liver model (well stirred model).
[formula] [formula] [formula] • Hepatocellularity, mouse: 120×10e6 cells/g liver • Liver factor, mouse: 55 g/kg bodyweight • Blood flow, mouse: 90 ml/(min×kg)

[2] = test system: SIRPα signalling induced by Raji cells; test: Assay B: SIRPα signalling assay using Raji cells; assay type: cell-based; conditions: Homo sapiens, Table 4, compounds of the invention, read-out: Inhibition of SIRPα signalling induced by Raji cells: IC50
Procedure: Bioassay reagent 1 of the PathHunter Bioassay detection kit (DiscoverX 93-0001) was added to each well of the plate using a multichannel pipette followed by a 15 min incubation at room temperature. Afterwards bioassay reagent 2 was added followed by 60 min incubation at room temperature (incubation in the dark).
(§2) The analysis of the data was performed using the luminescence signal generated by beta-galactosidase in the PathHunter reporter cell line. The luminescence measurement was done using a Pherastar Multi-Mode Reader.

[3] = test system: SIRPα signalling induced by A549 cells; test: Assay B: SIRPα signalling assay using A549 cells; assay type: cell-based; conditions: Homo sapiens, Table 4, compounds of the invention, read-out: Inhibition of SIRPα signalling induced by A549 cells: IC50
Procedure: Two cell types are independently used: the Raji cell line (lymphoblast-like human cell line derived from B lymphocytes from a Burkitt's lymphoma patient in 1963) and A549 cells (adenocarcinoma human alveolar basal epithelial cells).
Test compounds were dissolved in 100% DMSO and serially diluted into a white 384-well microtiter cell culture plate (PerkinElmer #60076780 in case of Raji assay; PDL-coated plates Greiner #781945 in case of A549 assay). 5000 Raji cells (ATCC #CC86) or 5000 A549 cells (ATCC #CCL-185) in Assay Complete Cell Plating reagent 30 (DiscoverX 93-0563R30B) were added per well. The assay plate was incubated for 48 h at 37° C., 95% humidity and 5% CO2. 15000 reporter cells (Jurkat PathHunter SIRPαV1, DiscoverX #93-1135C19) were added to each well, and the plate was incubated for 5 h at 37° C., 95% humidity and 5% CO2. Bioassay reagent 1 of the PathHunter Bioassay detection kit (DiscoverX 93-0001) was added to each well of the plate using a multichannel pipette followed by a 15 min incubation at room temperature. Afterwards bioassay reagent 2 was added followed by 60 min incubation at room temperature (incubation in the dark).
as §2, with “Reader. Dose-response curves & IC50 data were calculated with 4-parameter sigmoidal dose response formula.” for “Reader.”

Structure (SMILES) | IC50 (QPCTL) | IC50 (QPCT) | Papp A→B [1] | efflux ratio [1] | n-fold induction of CYP3A4 at 10 μM (CYP3A4 mRNA) | Mouse Hepatocyte Stability QH (murine hepatocytes) | IC50 [2] | IC50 [3]
Cn1cnnc1C1(F)CCN(c2c(C#N)cc(C(C)(F)F)nc2-c2cnc3nn(C)c(C(F)(F)F)c3c2)CC1 [Example 9] | 0.006 µM | 0.005 µM | 14 ×10⁻⁶ cm/s | 6.4 | 4.2 n-fold | 34% | 0.083 µM | 0.014 µM
Cn1cnnc1C1(F)CCN(c2c(C#N)cc(C(F)(F)F)nc2-c2cnc3nn(C)c(C(F)(F)F)c3c2)CC1 [Example 10] | 0.008 µM | 0.013 µM | 11 ×10⁻⁶ cm/s | 6.6 | 5.2 n-fold | 53% | 0.16 µM | 0.049 µM
Cn1cnnc1C1(F)CCN(c2c(C#N)cc(C3CC3)nc2-c2cnc3nn(C)c(C(F)(F)F)c3c2)CC1 [Example 11] | 0.003 µM | 0.003 µM | 32 ×10⁻⁶ cm/s | 2.5 | 5.0 n-fold | 32% | 0.167 µM | 0.037 µM
Cc1cc(-c2nc(C3CC3)cc(C#N)c2N2CCC(F)(c3nncn3C)CC2)cnn1 [Example 12] | 0.016 µM | 0.014 µM | 5.6 ×10⁻⁶ cm/s | 9.5 | 4.1 n-fold | 21% | 0.95 µM | 0.145 µM

Second part, the compound after the results:

IC50 (QPCTL) | IC50 (QPCT) | Papp A→B [1] | efflux ratio [1] | n-fold induction of CYP3A4 at 10 μM (CYP3A4 mRNA) | Mouse Hepatocyte Stability QH (murine hepatocytes) | IC50 [2] | IC50 [3] | Structure (SMILES)
0.012 µM | 0.009 µM | 7.6 ×10⁻⁶ cm/s | 10.9 | 14.2 n-fold | <12% | 0.003 µM | 0.001 µM | Cn1cnnc1C1(F)CCN(c2c(C#N)cc(C(F)(F)F)nc2-c2cnc3nn(C(C)(C)C)cc3c2C(F)F)CC1 [Example 15]
0.002 µM | 0.002 µM | 5.1 ×10⁻⁶ cm/s | 9.4 | 3.0 n-fold | 18% | 0.069 µM | 0.022 µM | Cc1nn(C)cc1-c1cc(C#N)c(N2CCC(F)(c3nncn3C)CC2)c(-c2cnc3nn(C(F)(F)F)cc3c2)n1 [Example 17]
